{
  "source": "patent US20260130933A1",
  "about": "“PHARMACEUTICAL COMPOSITION FOR PREVENTION OR TREATMENT OF NEPHROPATHY AND/OR DIABETES MELLITUS, COMPRISING ENAVOGLIFLOZIN” (DAEWOONG PHARMACEUTICAL CO., LTD., priority 2022, published 2026)",
  "assay": "Example 2: phase 3 trial, enavogliflozin 0.3 mg vs dapagliflozin 10 mg once a day for 24 weeks added to metformin in patients with type 2 diabetes (same efficacy, exploratory and safety endpoints)",
  "type": "in vivo, human",
  "procedure": "Subjects who met the inclusion/exclusion criteria were administered a placebo of the clinical trial drug under single-blind (subject blinding) conditions during a 2-week run-in period while continuing to receive metformin. […] The randomized subjects were administered two tablets of the clinical trial drug for each administration group once a day, and then visited the institution at weeks 6, 12, 18, and 24 during the 24-week administration period to conduct efficacy and safety evaluations.\n• 1. Change in HbA1c at week 24 after administration of clinical trial drug compared to Visit 2 (randomization)\n• 1. Change in HbA1c at each time point of weeks 6, 12, and 18 after administration of clinical trial drug compared to Visit 2 (randomization) • 2. Change in FPG at each time point of weeks 6, 12, 18, and 24 after administration of clinical trial drug compared to Visit 2 (randomization) • 3. Proportion of subjects achieving HbA1c<7% at each time point of weeks 6, 12, 18, and 24 after administration of clinical trial drug • 4. Proportion of subjects achieving HbA1c<6.5% at each time point of weeks 6, 12, 18, and 24 after administration of clinical trial drug • 5. Proportion of subjects achieving therapeutic response (HbA1c change (HbA1c at Visit 2-HbA1c at each evaluation time point)>0.5% or HbA1c<7% at each evaluation time point compared to Visit 2 (randomization)) at each time point of weeks 6, 12, 18 and 24 after administration of clinical trial drug\n• 1. Change in fasting c-peptide at each time point of weeks 6, 12, 18, and 24 after administration of clinical trial drug compared to Visit 2 (randomization) • 2. Change in body weight at each time point of weeks 6, 12, 18, and 24 after administration of clinical trial drug compared to Visit 2 (randomization) • 3. Change in fasting lipid concentration (total cholesterol, LDL-C, HDL-C, and triglycerides) at each time point of weeks 6, 12, 18, and 24 after administration of clinical trial drug compared to Visit 2 (randomization) • 4. Changes in systolic or diastolic blood pressure at each time point of weeks 6, 12, 18, and 24 after administration of clinical trial drug compared to Visit 2 (randomization) • 5. Changes in β-cell function and insulin resistance measured by HOMA-β and HOMA-IR at each time point of weeks 6, 12, 18, and 24 after administration of clinical trial drug compared to Visit 2 (randomization) • 6. Changes in renal function-related indicators (UACR, UGCR) measured by UACR at each time point of weeks 6, 12, 18, and 24 after administration of clinical trial drug compared to Visit 2 (randomization) • 7. Changes in obesity-related indicators (adiponectin, leptin) at each time point of weeks 6, 12, 18, and 24 after administration of clinical trial drug compared to Visit 2 (randomization)",
  "key": {"[1]": {"settings": "Week 24, mPPS1, enavogliflozin minus dapagliflozin"}, "[2]": {"settings": "Week 24, mPPS2, enavogliflozin minus dapagliflozin"}, "[3]": {"settings": "week 6, modified per-protocol set 1, enavogliflozin 0.3 mg, dapagliflozin 10 mg"}, "[4]": {"settings": "week 6, per-protocol set, enavogliflozin 0.3 mg vs dapagliflozin 10 mg"}, "[5]": {"settings": "week 6, per-protocol set, enavogliflozin 0.3 mg, dapagliflozin 10 mg"}},
  "data": [
    {"compound": "OC[C@H]1O[C@@H](c2cc(Cc3ccc(C4CC4)cc3)c(Cl)c3c2CCO3)[C@H](O)[C@@H](O)[C@@H]1O", "note": "[Enavogliflozin, (2S,3R,4R,5S,6R)-2-(7-chloro-6 (4-cyclopropylbenzyl)-2,3-dihydrobenzofuran-4-yl)-6-(hydroxymethyl)tetrahydro-2H-pyran-3,4,5-triol]", "values": [
      {"measurement": "Triglycerides, Mean (SD)", "setting": "Week 24, mPPS1", "value": "119.62(58.93) mg/dL"},
      {"measurement": "Triglycerides, Median", "setting": "Week 24, mPPS1", "value": 104.00, "unit": "mg/dL"},
      {"measurement": "HDL-C change from baseline, LS mean difference", "setting": "[1]", "value": -0.14, "unit": "mg/dL"},
      {"measurement": "LDL-C change from baseline, LS mean difference", "setting": "[1]", "value": 0.71, "unit": "mg/dL"},
      {"measurement": "triglycerides change from baseline, LS mean difference", "setting": "[1]", "value": 1.63, "unit": "mg/dL"},
      {"measurement": "Diastolic blood pressure change from baseline, ANCOVA LS mean (SE)", "setting": "Week 24, mPPS2", "value": "−5.41", "unit": "mmHg"},
      {"measurement": "Diastolic blood pressure change from baseline, Mean (SD)", "setting": "Week 24, mPPS2", "value": "−5.40", "unit": "mmHg"},
      {"measurement": "Diastolic blood pressure change from baseline, Median", "setting": "Week 24, mPPS2", "value": "−6.00", "unit": "mmHg"},
      {"measurement": "Diastolic blood pressure, Mean (SD)", "setting": "Week 24, mPPS2", "value": 71.65, "unit": "mmHg"},
      {"measurement": "Diastolic blood pressure, Median", "setting": "Week 24, mPPS2", "value": 71.00, "unit": "mmHg"},
      {"measurement": "Systolic blood pressure change from baseline, ANCOVA LS mean (SE)", "setting": "Week 24, mPPS2", "value": "−5.93(1.01) mmHg"},
      {"measurement": "Systolic blood pressure change from baseline, Mean (SD)", "setting": "Week 24, mPPS2", "value": "−6.34(9.75) mmHg"},
      {"measurement": "Systolic blood pressure change from baseline, Median", "setting": "Week 24, mPPS2", "value": "−5.00", "unit": "mmHg"},
      {"measurement": "Systolic blood pressure, Mean (SD)", "setting": "Week 24, mPPS2", "value": "123.38(12.55) mmHg"},
      {"measurement": "Systolic blood pressure, Median", "setting": "Week 24, mPPS2", "value": 122.00, "unit": "mmHg"},
      {"measurement": "diastolic blood pressure change from baseline, LS mean difference", "setting": "[2]", "value": "−1.15", "unit": "mmHg"},
      {"measurement": "systolic blood pressure change from baseline, LS mean difference", "setting": "[2]", "value": 0.63, "unit": "mmHg"},
      {"measurement": "FPG change from baseline, LS mean (SE)", "setting": "week 6", "value": "−28.07(2.14) mg/dL"},
      {"measurement": "HOMA-IR change from baseline, LS mean (SE)", "setting": "week 6", "value": "−1.47(0.14)"},
      {"measurement": "HOMA-β change from baseline, LS mean (SE)", "setting": "week 6", "value": "7.22(5.44)"},
      {"measurement": "HbA1c change from baseline, LS mean (SE)", "setting": "week 6", "value": "−0.68(0.04) % p"},
      {"measurement": "LDL-C change from baseline, LS mean (SE)", "setting": "week 6", "value": "−0.09(1.89) mg/dL"},
      {"measurement": "Subjects achieving HbA1c target of <7%", "setting": "week 6", "value": "(53.68) %"},
      {"measurement": "Subjects achieving HbA1c<6.5%", "setting": "week 6", "value": 12.63, "unit": "%"},
      {"measurement": "Subjects achieving therapeutic response (HbA1c change >0.5% or HbA1c<7%)", "setting": "week 6", "value": 78.95, "unit": "%"},
      {"measurement": "UACR change from baseline, LS mean (SE)", "setting": "week 6", "value": "−12.75(10.48) g/kg"},
      {"measurement": "UGCR change from baseline, LS mean (SE)", "setting": "week 6", "value": "65.72(2.70) mg/mg"},
      {"measurement": "diastolic blood pressure change from baseline, LS mean (SE)", "setting": "week 6", "value": "−2.75(0.69) mmHg"},
      {"measurement": "fasting c-peptide change from baseline, LS mean (SE)", "setting": "week 6", "value": "−0.07(0.02) ng/ml"},
      {"measurement": "leptin change from baseline, LS mean (SE)", "setting": "week 6", "value": "−2.43(0.46) ng/mL"},
      {"measurement": "FPG change from baseline, LS mean difference", "setting": "week 6, vs dapagliflozin", "value": -4.27, "unit": "mg/dL"},
      {"measurement": "HDL-C change from baseline, LS mean difference", "setting": "week 6, vs dapagliflozin", "value": -0.49, "unit": "mg/dL"},
      {"measurement": "HOMA-IR change from baseline, LS mean difference", "setting": "week 6, vs dapagliflozin", "value": "−0.16"},
      {"measurement": "HOMA-β change from baseline, LS mean difference", "setting": "week 6, vs dapagliflozin", "value": 9.01},
      {"measurement": "HbA1c change from baseline, LS mean difference", "setting": "week 6, vs dapagliflozin", "value": "−0.05", "unit": "% p"},
      {"measurement": "LDL-C change from baseline, LS mean difference", "setting": "week 6, vs dapagliflozin", "value": -4.29, "unit": "mg/dL"},
      {"measurement": "Odds ratio for achieving HbA1c<6.5%", "setting": "week 6, vs dapagliflozin", "value": 0.83},
      {"measurement": "Odds ratio for achieving HbA1c<7%", "setting": "week 6, vs dapagliflozin", "value": 1.06},
      {"measurement": "Odds ratio for achieving therapeutic response", "setting": "week 6, vs dapagliflozin", "value": 0.98},
      {"measurement": "UACR change from baseline, LS mean difference", "setting": "week 6, vs dapagliflozin", "value": "−20.88"},
      {"measurement": "UGCR change from baseline, LS mean difference", "setting": "week 6, vs dapagliflozin", "value": 15.62, "unit": "mg/mg"},
      {"measurement": "body weight change from baseline, LS mean difference", "setting": "week 6, vs dapagliflozin", "value": 0.04, "unit": "kg"},
      {"measurement": "diastolic blood pressure change from baseline, LS mean difference", "setting": "week 6, vs dapagliflozin", "value": "−1.28", "unit": "mmHg"},
      {"measurement": "fasting c-peptide change from baseline, LS mean difference", "setting": "week 6, vs dapagliflozin", "value": 0.00, "unit": "ng/mL"},
      {"measurement": "leptin change from baseline, LS mean difference", "setting": "week 6, vs dapagliflozin", "value": -0.81, "unit": "ng/mL"},
      {"measurement": "systolic blood pressure change from baseline, LS mean difference", "setting": "week 6, vs dapagliflozin", "value": "−0.58", "unit": "mmHg"},
      {"measurement": "total cholesterol change from baseline, LS mean difference", "setting": "week 6, vs dapagliflozin", "value": -2.10, "unit": "mg/dL"},
      {"measurement": "triglyceride change from baseline, LS mean difference", "setting": "week 6, vs dapagliflozin", "value": 18.76, "unit": "mg/dL"},
      {"measurement": "Subjects achieving HbA1c target of <7%", "setting": "week 6, listed as enavogliflozin", "value": 53.68, "unit": "%"},
      {"measurement": "Change from baseline in total cholesterol, ANCOVA LS mean difference", "setting": "week 6, modified per-protocol set 1, enavogliflozin 0.3 mg vs dapagliflozin 10 mg", "value": -2.10, "unit": "mg/dL"},
      {"measurement": "Change from baseline in Total cholesterol, ANCOVA LS mean (SE)", "setting": "[3]", "value": "4.77(2.19) mg/dL"},
      {"measurement": "Change from baseline in Total cholesterol, Mean (SD)", "setting": "[3]", "value": "4.34(17.75) mg/dL"},
      {"measurement": "Change from baseline in total cholesterol, Median", "setting": "[3]", "value": 3.00, "unit": "mg/dL"},
      {"measurement": "fasting Total cholesterol, Mean (SD)", "setting": "[3]", "value": "155.77(35.37) mg/dL"},
      {"measurement": "fasting Total cholesterol, Median", "setting": "[3]", "value": 147.00, "unit": "mg/dL"},
      {"measurement": "Change from baseline in FPG, ANCOVA LS mean difference", "setting": "[4]", "value": -4.27, "unit": "mg/dL"},
      {"measurement": "Change from baseline in HbA1c, ANCOVA LS mean difference", "setting": "[4]", "value": "−0.05", "unit": "% p"},
      {"measurement": "Change from baseline in body weight, ANCOVA LS mean difference", "setting": "[4]", "value": 0.04, "unit": "kg"},
      {"measurement": "Change from baseline in fasting c-peptide, ANCOVA LS mean difference", "setting": "[4]", "value": 0.00, "unit": "ng/mL"},
      {"measurement": "Odds ratio for achieving HbA1c target of <6.5%, logistic regression model", "setting": "[4]", "value": 0.83},
      {"measurement": "Odds ratio for achieving therapeutic glycemic response, logistic regression model", "setting": "[4]", "value": 0.98},
      {"measurement": "Change from baseline in FPG, ANCOVA LS mean (SE)", "setting": "[5]", "value": -28.07, "unit": "mg/dL"},
      {"measurement": "Change from baseline in FPG, Mean (SD)", "setting": "[5]", "value": -26.91, "unit": "mg/dL"},
      {"measurement": "Change from baseline in FPG, Median", "setting": "[5]", "value": -27.00, "unit": "mg/dL"},
      {"measurement": "Change from baseline in HbA1c, ANCOVA LS mean (SE)", "setting": "[5]", "value": "−0.68", "unit": "% p"},
      {"measurement": "Change from baseline in HbA1c, Mean (SD)", "setting": "[5]", "value": "−0.62", "unit": "% p"},
      {"measurement": "Change from baseline in HbA1c, Median", "setting": "[5]", "value": "−0.57", "unit": "% p"},
      {"measurement": "Change from baseline in body weight, ANCOVA LS mean (SE)", "setting": "[5]", "value": "−1.56(0.20) kg"},
      {"measurement": "Change from baseline in body weight, Mean (SD)", "setting": "[5]", "value": "−1.56(2.30) kg"},
      {"measurement": "Change from baseline in body weight, Median", "setting": "[5]", "value": -1.70, "unit": "kg"}
    ]}
  ]
}
